According to US8383619B2, “Pharmaceutical compounds” (Astex Therapeutics Limited, priority 2008, dated 2013):

Assays:
[1] = Liver homogenate stability; type: in vitro ADME; conditions: 1 μM, 37° C., 120 mins
Excerpt: (§1) The breakdown of a prodrug in vivo could occur in one or more of several different compartments including for example, but not limited to blood/plasma, liver, stomach, target tissue (e.g. tumour). The preferred location for optimum formation of the parent drug will depend on the disposition in vivo of the pro-drug and parent and an understanding of the optimum concentrations of each required in the circulation to maximise exposure to the active moiety in the target tissue. The potential for pro-drug molecules to deliver the active parent drug may be assessed in vitro by measuring the breakdown of a pro-drug in the presence of relevant body fluids. For the purpose of gaining a preliminary understanding of the stability of compounds of the invention to enzymatic hydrolysis in two such bodily compartments, compound turnover has been studied following incubation in whole blood and liver homogenate from mice and humans. The data obtained from these studies provide a preliminary understanding of which of the prodrugs are better able to deliver parent compound (i.e. are more rapidly broken down to parent compound) in these compartments. Further studies could also determine stability in other compartments (e.g. in the target tumours by measuring stability in tumour lysates).
Mouse livers were obtained from 20 male mice, strain: Balb/c from stock animals. Human liver tissue was obtained from 3 individuals sourced from a UK human tissue bank. The livers were stored frozen. The livers were defrosted and then homogenised to form a homogenate of approximately 30% (w/v) in phosphate buffer, 100 mM, pH 7.4 (referred to as ‘buffer’). Homogenates were kept on ice until use.
(§2) Each incubation consisted of a volume of 1 mL. Test compound dosing solutions were then spiked into each homogenate at a final compound concentration of 1 μM. Incubations were performed in the atmosphere in a shaking water bath at 37° C.
(§3) An aliquot of incubation samples was removed into an equal volume of ice-cold acetonitrile at various time points. Samples (whole blood/homogenate+acetonitrile) were centrifuged and aliquots of the supernatant were analysed by HPLC-MS/MS.
(§4) The compound X (2,4-dihydroxy-5-isopropyl-phenyl)-[5-(4-methyl-piperazin-1-ylmethyl)-1,3-dihydro-isoindol-2-yl]-methanone) and the compounds of Examples 1 to 24 were incubated in both whole blood and liver homogenate by Quotient Bioresearch (Rushden, UK). The percentage remaining of parent compound following incubation in whole blood/liver homogenate from human and mouse are set out in the table below.

Whole blood stability = type: in vitro ADME; conditions: 1 μM, 37° C.
Excerpt: as §1
For these studies, human whole blood was collected from 3 male healthy volunteers in lithium heparin tubes. The blood was pooled and stored at room temperature for a maximum of 2 hours prior to initiation of incubations. Mouse blood was collected from 70 male mice, strain: Balb/c into lithium heparin tubes and pooled.
as §2, §3, §4

Row | Percentage remaining Human Liver [1] [%] | Percentage remaining Mouse Liver [1] [%] | Percentage remaining Human blood (Whole blood stability; 120 mins) [%] | Percentage remaining Mouse blood (Whole blood stability; 120 mins) [%] | Percentage remaining Mouse blood (Whole blood stability; 60 mins (footnote *)) [% *] | Structure (SMILES)
1 | 94 | 112 | 100 | 102 | – | CC(C)c1cc(C(=O)N2Cc3ccc(CN4CCN(C)CC4)cc3C2)c(O)cc1O [Compound X, (2,4-dihydroxy-5-isopropyl-phenyl)-[5-(4-methyl-piperazin-1-ylmethyl)-1,3-dihydro-isoindol-2-yl]-methanone]
2 | 99 | 104 | 100 | 104 | – | COc1cc(O)c(C(C)C)cc1C(=O)N1Cc2ccc(CN3CCN(C)CC3)cc2C1 [Example 1, (4-Hydroxy-5-isopropyl-2-methoxy-phenyl)-[5-(4-methyl-piperazin-1-ylmethyl)-1,3-dihydro-isoindol-2-yl]-methanone]
3 | 85 | 100 | 122 | 129 | – | COc1cc(O)c(C(=O)N2Cc3ccc(CN4CCN(C)CC4)cc3C2)cc1C(C)C [Example 2, (2-Hydroxy-5-isopropyl-4-methoxy-phenyl)-[5-(4-methyl-piperazin-1-ylmethyl)-1,3-dihydro-isoindol-2-yl]-methanone]
4 | 79 | 93 | 107 | 100 | – | COc1cc(OC)c(C(C)C)cc1C(=O)N1Cc2ccc(CN3CCN(C)CC3)cc2C1 [Example 3, (5-Isopropyl-2,4-dimethoxy-phenyl)-[5-(4-methyl-piperazin-1-ylmethyl)-1,3-dihydro-isoindol-2-yl]-methanone]
5 | 92 | 63 | 109 | 106 | – | C=CCOc1cc(O)c(C(C)C)cc1C(=O)N1Cc2ccc(CN3CCN(C)CC3)cc2C1 [Example 4, (2-Allyloxy-4-hydroxy-5-isopropyl-phenyl)-[5-(4-methyl-piperazin-1-ylmethyl)-1,3-dihydro-isoindol-2-yl]-methanone]
6 | 81 | 86 | 115 | 124 | – | C=CCOc1cc(O)c(C(=O)N2Cc3ccc(CN4CCN(C)CC4)cc3C2)cc1C(C)C [Example 5, (4-Allyloxy-2-hydroxy-5-isopropyl-phenyl)-[5-(4-methyl-piperazin-1-ylmethyl)-1,3-dihydro-isoindol-2-yl]-methanone]
7 | 94 | 75 | 105 | 125 | – | C=CCOc1cc(OCC=C)c(C(C)C)cc1C(=O)N1Cc2ccc(CN3CCN(C)CC3)cc2C1 [Example 6, (2,4-Bis-allyloxy-5-isopropyl-phenyl)-[5-(4-methyl-piperazin-1-ylmethyl)-1,3-dihydro-isoindol-2-yl]-methanone]
8 | 92 | 115 | 109 | – | 104 | COCOc1cc(O)c(C(C)C)cc1C(=O)N1Cc2ccc(CN3CCN(C)CC3)cc2C1 [Example 7, [4-Hydroxy-5-isopropyl-2-(methoxymethyloxy)-phenyl]-[5-(4-methyl-piperazin-1-ylmethyl)-1,3-dihydro-isoindol-2-yl]-methanone]
9 | 102 | 79 | 114 | 104 | – | COCOc1cc(O)c(C(=O)N2Cc3ccc(CN4CCN(C)CC4)cc3C2)cc1C(C)C [Example 8, [2-Hydroxy-5-isopropyl-4-(methoxymethyloxy)-phenyl]-[5-(4-methyl-piperazin-1-ylmethyl)-1,3-dihydro-isoindol-2-yl]-methanone]
10 | 98 | 82 | 111 | – | 105 | COCOc1cc(OCOC)c(C(C)C)cc1C(=O)N1Cc2ccc(CN3CCN(C)CC3)cc2C1 [Example 9, [5-Isopropyl-2,4-bis-(methoxymethyloxy)-phenyl]-[5-(4-methyl-piperazin-1-ylmethyl)-1,3-dihydro-isoindol-2-yl]-methanone]

Row | Structure (SMILES) | Percentage remaining Human Liver [1] [%] | Percentage remaining Mouse Liver [1] [%] | Percentage remaining Human blood (Whole blood stability; 120 mins) [%] | Percentage remaining Mouse blood (Whole blood stability; 120 mins) [%] | Percentage remaining Mouse blood (Whole blood stability; 60 mins (footnote *)) [% *]
11 | CCN(CC)C(=O)Oc1cc(OC(=O)N(CC)CC)c(C(C)C)cc1C(=O)N1Cc2ccc(CN3CCN(C)CC3)cc2C1 [Example 10] | 56 | 60 | 108 | 93 | –
12 | CC(C)c1cc(C(=O)N2Cc3ccc(CN4CCN(C)CC4)cc3C2)c(OC(=O)N2CCCC2)cc1OC(=O)N1CCCC1 [Example 12, 2-[2,4-bis-(pyrrolidin-1-ylcarbonyloxy)-5-isopropyl-benzoyl]-5-(4-methyl-piperazin-1-ylmethyl)-1,3-dihydro-isoindole] | 43 | 1 | 110 | 37 | –
13 | CC(C)c1cc(C(=O)N2Cc3ccc(CN4CCN(C)CC4)cc3C2)c(OC(=O)N2CCOCC2)cc1OC(=O)N1CCOCC1 [Example 13, 2-[2,4-bis-(morpholin-4-ylcarbonyloxy)-5-isopropyl-benzoyl]-5-(4-methyl-piperazin-1-ylmethyl)-1,3-dihydro-isoindole] | 0 | 0 | 76 | 0 | –
14 | CCN(CC)C(=O)Oc1cc(O)c(C(C)C)cc1C(=O)N1Cc2ccc(CN3CCN(C)CC3)cc2C1 [Example 14, Diethyl-carbamic acid 5-hydroxy-4-isopropyl-2-[5-(4-methyl-piperazin-1-ylmethyl)-1,3-dihydro-isoindole-2-carbonyl]-phenyl ester] | 88 | 89 | 94 | 94 | –
15 | CCN(CC)C(=O)Oc1cc(O)c(C(=O)N2Cc3ccc(CN4CCN(C)CC4)cc3C2)cc1C(C)C [Example 15, Diethyl-carbamic acid 5-hydroxy-2-isopropyl-4-[5-(4-methyl-piperazin-1-ylmethyl)-1,3-dihydro-isoindole-2-carbonyl]-phenyl ester] | 35 | 26 | 123 | 58 | –
16 | CC(C)c1cc(C(=O)N2Cc3ccc(CN4CCN(C)CC4)cc3C2)c(OC(=O)N(C)C)cc1O [Example 16, dimethyl-carbamic acid 5-hydroxy-4-isopropyl-2-[5-(4-methyl-piperazin-1-ylmethyl)-1,3-dihydro-isoindole-2-carbonyl]-phenyl ester] | 73 | 82 | 104 | 91 | –
17 | CC(C)c1cc(C(=O)N2Cc3ccc(CN4CCN(C)CC4)cc3C2)c(OC(=O)N2CCCC2)cc1O [Example 18, 2-[2-(pyrrolidin-1-ylcarbonyloxy)-4-hydroxy-5-isopropyl-benzoyl]-5-(4-methyl-piperazin-1-ylmethyl)-1,3-dihydro-isoindole] | 65 | 80 | 110 | – | 103
